Broadly, the IC50 is the concentration that inhibits the measured activity by half. High values mean weaker potency in that assay, low ones greater potency in that assay. One may read the EC50 as the concentration at which the effect is half-maximal. High values mean lower potency in that assay, low ones higher potency in that assay. Usually inhibition stands for the drop in the measured response relative to a control, in per cent. A lower inhibition goes with little suppression.

The source of these data is article PMC9471462, “The nematode serotonin-gated chloride channel MOD-1: A novel target for anthelmintic therapy” (The Journal of Biological Chemistry, 2022).

Experiment [1] has as its target T1, MOD-1 (Caenorhabditis elegans, UniProt Q9GQ00). Briefly: whole-cell patch clamp in BOSC-23 cells, inhibition of […] 5-HT currents after […] s preincubation. It is filed as cell-based. In general terms: Patch clamp records ionic current or voltage across a cell membrane.
Experiment [2] has as its target T1, MOD-1. The experiment can be described thus: whole-cell patch clamp of homomeric MOD-1 expressed in BOSC-23 cells, agonist concentration-response (efficacy about […]). Type of experiment: cell-based.
Experiment [3] deals with T1, MOD-1. Briefly: whole-cell patch clamp in BOSC-23 cells, preincubation; weak partial reduction of 5-HT peak current at […]. It is filed as cell-based.
The target of experiment [4] is T1, MOD-1. Briefly: cell-based.

T1 sequence (Q9GQ00 21-489): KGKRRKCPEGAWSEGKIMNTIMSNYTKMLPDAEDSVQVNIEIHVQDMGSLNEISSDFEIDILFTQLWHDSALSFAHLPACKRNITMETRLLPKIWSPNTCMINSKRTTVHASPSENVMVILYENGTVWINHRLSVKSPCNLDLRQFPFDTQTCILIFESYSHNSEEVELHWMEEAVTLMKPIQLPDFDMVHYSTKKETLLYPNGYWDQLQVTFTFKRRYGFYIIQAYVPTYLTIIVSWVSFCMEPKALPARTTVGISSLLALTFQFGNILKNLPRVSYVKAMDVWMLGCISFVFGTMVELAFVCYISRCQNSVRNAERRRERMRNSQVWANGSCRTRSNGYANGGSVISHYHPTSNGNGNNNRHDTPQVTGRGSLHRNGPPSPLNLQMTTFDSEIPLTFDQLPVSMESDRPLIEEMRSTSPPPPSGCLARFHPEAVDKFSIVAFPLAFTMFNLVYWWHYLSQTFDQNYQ

`NCc1cc(=O)[nH]o1` [muscimol]: the IC50 in experiment [1] is 249 ± 160 µM. In the case of `NCCc1c[nH]c2ccccc12` [Tryp, tryptamine], in experiment [2], the EC50 is 47 ± 11 µM. Consider `O=C(O)C1=CCNCC1` [isoguvacine], for which the inhibition at 1000 µM in experiment [3] came to 23 ± 14%. The molecule `C1CNCCN1` [PZE, piperazine] gave a half-inhibitory concentration (IC50) in experiment [4] of 113 ± 29 µM.
